Experimental findings from ChEMBL document CHEMBL1212917, “Substituted E-3-(3-indolylmethylene)-1,3-dihydroindol-2-ones with antitumor activity. In depth study of the effect on growth of breast cancer cells” (2010) are described below.

Structures can show the parent of a compound that is named as a salt.

Assay type in all cases: functional
Test [1] can be described thus: Growth inhibition of human leukemia cells after 48 hrs. To be noted: Leukemia cell; for CC50: read-out: LC50 (the source's name).
For another test, the system named is NSCLC. Briefly: Growth inhibition of human NSCLC cells after 48 hrs.
Test [2] is described as follows: Growth inhibition of human colon cancer cells after 48 hrs. To be noted: Cancer cell lines; for CC50: read-out: LC50 (the source's name).
Test [3] in a line: Growth inhibition of human CNS cancer cells after 48 hrs. To be noted: Cancer cell lines; for CC50: read-out: LC50 (the source's name).
Test [4] in a line: Growth inhibition of human melanoma cells after 48 hrs. To be noted: Melanoma cell; for CC50: read-out: LC50 (the source's name).
A short description of test [5]: Growth inhibition of human Ovarian cancer cells after 48 hrs. Conditions: Cancer cell lines; for CC50: read-out: LC50 (the source's name).
The nature of test [6]: Growth inhibition of human renal cancer cells after 48 hrs. To be noted: Cancer cell lines; for CC50: read-out: LC50 (the source's name).
A short description of test [7]: Growth inhibition of human prostate cancer cells after 48 hrs. To be noted: Cancer cell lines; for CC50: read-out: LC50 (the source's name).
Test [8] is described as follows: Growth inhibition of human breast cancer cells after 48 hrs. Conditions: Cancer cell lines; for CC50: read-out: LC50 (the source's name).

As a reminder, the GI50 is the concentration that inhibits growth by half. The LC50 is the concentration lethal to half of the exposed cells or organisms. With `COc1cc2c(/C=C3/C(=O)Nc4cc(Cl)ccc43)c(Cl)[nH]c2cc1C`, the GI50 in test [1] is 0.14 µM; with NSCLC, 0.43 µM; in test [2], 0.17 µM; in test [3] it was 0.12 µM; in [4], 0.23 µM; in test [5], 0.28 µM. The GI50 in test [6] stood at 0.23 µM; in test [7], 0.22 µM; in test [8], 0.15 µM. For the same compound, the CC50 in [1] worked out at 58.9 µM; in [2] it was 25.7 µM; in [3], 41.7 µM; in [4], 35.5 µM; in test [5] it was 49 µM; in test [6] it was 46.8 µM. Moreover, the CC50 in test [7] was 41.7 µM; in test [8], 39.8 µM. In the test with NSCLC, this compound displayed an LC50 of 52.5 µM.

In general, TGI refers to the concentration giving total growth inhibition. Turning to `COc1cc2c(/C=C3/C(=O)N(C)c4ccccc43)c[nH]c2cc1C`, the GI50 worked out at 2 µM in [1]; 6.31 µM in the test with NSCLC; 0.76 µM in [2]; 1.07 µM in test [3]; 3.09 µM in test [4]; 7.76 µM in test [5]. In addition, the GI50 in test [6] was 4.17 µM; in test [7], 4.17 µM; in [8] it was 1.78 µM. The TGI in test [1] is 35.5 µM; in the test on NSCLC, 66.1 µM; in test [2], 60.3 µM; in [3] it was 42.7 µM; in test [4] it was 74.1 µM; in test [5], 60.3 µM. In addition, the TGI worked out at 60.3 µM in [6], 81.3 µM in [7] and 55 µM in test [8]. For the same compound, the CC50 in [1] was determined as 93.3 µM; in test [2], 97.7 µM; in test [3], 95.5 µM; in test [4], 97.7 µM. Moreover, in the test on NSCLC, the LC50 is 93.3 µM.

On to `Cc1cc2c(cc1O)/C(=C\c1c(Cl)[nH]c3c1ccc1ccccc13)C(=O)N2`, for which the GI50 in test [1] is 3.31 µM; with NSCLC, 7.94 µM; in test [2], 6.61 µM; in test [3] it was 8.71 µM; in test [4] it was 6.46 µM; in test [5], 9.12 µM. Further, the GI50 turned out to be 8.71 µM in test [6] and 3.72 µM in test [8]. In addition, the TGI was 38 µM in test [1]; 30.2 µM in the test with NSCLC; 20.9 µM in [2]; 24.6 µM in test [3]; 20.9 µM in test [4]; 46.8 µM in [5]. Also, the TGI turned out to be 33.1 µM in [6], 26.3 µM in [7] and 19.1 µM in test [8]. Moreover, the CC50 in test [2] turned out to be 61.7 µM; in [3], 67.6 µM; in [4], 57.5 µM; in [5] it was 87.1 µM; in test [6] it was 75.9 µM; in test [7] it was 74.1 µM. Also, the CC50 in test [8] turned out to be 69.2 µM.

Consider `CN(C)c1ccc2[nH]c(Cl)c(/C=C3/C(=O)N(C)c4ccc(O)cc43)c2c1`, for which the GI50 in test [1] came out at 16.6 µM; in the test with NSCLC, 6.61 µM; in [2], 4.9 µM; in [3] it was 6.03 µM; in [4] it was 4.57 µM; in test [5], 8.32 µM. The GI50 in [6] turned out to be 4.37 µM; in test [7] it was 12.9 µM; in [8] it was 3.8 µM. The compound also showed an LC50 in the test on NSCLC of 85.1 µM. The TGI in the test on NSCLC was determined as 46.8 µM; in [2], 20.9 µM; in test [3], 33.9 µM; in [4], 26.3 µM; in test [5], 55 µM; in test [6], 31.6 µM. In addition, in test [8], the TGI is 30.9 µM. Moreover, the CC50 came to 61.7 µM in test [2]; 85.1 µM in test [3]; 66.1 µM in [4]; 95.5 µM in [5]; 87.1 µM in test [6].

Consider `CC[C@]1(O)C[C@H]2CN(CCc3c([nH]c4ccccc34)[C@@](C(=O)OC)(c3cc4c(cc3OC)N(C=O)[C@H]3[C@@](O)(C(=O)OC)[C@H](OC(C)=O)[C@]5(CC)C=CCN6CC[C@]43[C@@H]65)C2)C1` [VINCRISTINE SULFATE], for which the GI50 amounted to 0.1 µM in [1]; 0.25 µM in the test with NSCLC; 0.1 µM in [2]; 0.13 µM in test [3]; 0.16 µM in test [4]; 0.32 µM in [5]. Also, the GI50 in test [6] came out at 0.32 µM; in test [7] it was 0.13 µM; in test [8] it was 0.32 µM. For the same compound, the CC50 turned out to be 631 µM in test [1]; 79.4 µM in test [2]; 200 µM in test [3]; 251 µM in test [4]; 316 µM in test [5]; 251 µM in test [6]. The CC50 in [7] and in test [8] was 316 µM each time.

With `COc1ccc2c(c1)/C(=C\c1c(Cl)[nH]c3ccc(N(C)C)cc13)C(=O)N2`, the GI50 was 1.62 µM in [1]; 3.02 µM in the test with NSCLC; 1.55 µM in test [2]; 2.09 µM in test [3]; 3.55 µM in [4]; 3.39 µM in test [5]. Also, the GI50 in [6] was found to be 3.02 µM; in test [7], 2.88 µM; in [8], 1.15 µM. In addition, the CC50 is 72.4 µM in [1]; 30.2 µM in test [2]; 32.4 µM in test [3]; 44.7 µM in [4]; 50.1 µM in [5]; 52.5 µM in [6]. For the same compound, the CC50 stood at 50.1 µM in [7] and 55 µM in test [8]. In the test with NSCLC, the LC50 amounted to 58.9 µM.

Turning to `COc1ccc2[nH]cc(/C=C3/C(=O)Nc4ccccc43)c2c1`, the GI50 in test [1] is 2.34 µM; in the test on NSCLC, 5.13 µM; in test [2], 2.24 µM; in test [3] it was 6.17 µM; in test [4] it was 6.61 µM; in test [5], 6.31 µM. In addition, the figures for the GI50 in test [6], in test [7] and in test [8] were 5.75 µM, 5.62 µM and 3.47 µM, respectively. The TGI is 7.76 µM in test [1]; 25.1 µM in the test on NSCLC; 15.5 µM in test [2]; 28.8 µM in test [3]; 27.5 µM in test [4]; 30.2 µM in [5]. In addition, the TGI in [6] was determined as 26.3 µM; in test [7] it was 24 µM; in [8], 18.2 µM. The CC50 in [1] was determined as 43.6 µM; in test [2] it was 70.8 µM; in test [3], 75.9 µM; in test [4], 75.9 µM; in test [5], 81.3 µM; in test [6], 83.2 µM. Moreover, the CC50 worked out at 83.2 µM in test [7] and 91.2 µM in test [8].

For the compound `CN(C)c1ccc2[nH]c(Cl)c(/C=C3/C(=O)Nc4ccc(Cl)cc43)c2c1`, the GI50 in test [1] was determined as 1.62 µM; in the test with NSCLC, 2.57 µM; in test [2], 2.09 µM; in test [3] it was 1.58 µM; in [4], 2.69 µM; in test [5], 3.31 µM. The GI50 in [6] worked out at 1.78 µM; in [7] it was 2.45 µM; in [8], 1.32 µM. Further, the CC50 worked out at 91.2 µM in [1]; 22.9 µM in [2]; 18.2 µM in test [3]; 37.1 µM in test [4]; 41.7 µM in test [5]; 29.5 µM in test [6]. The values for the CC50 in [7] and in test [8] were 46.8 µM and 55 µM, respectively. In the test with NSCLC, this compound gave an LC50 of 46.8 µM.
